According to patent US9359311B2, “Substituted aromatic oligomers” (NEUROSCIOS GMBH, priority 2011, dated 2016):
“And” between values parts separate entries of the source, which are not always exact repeats. Identical values can stand only once.

Target: T1, biotinylated Aβ1-42 (Homo sapiens, UniProt P05067)
T1 construct: To assure monomerisation of biotinylated Aβ1-42 (Anaspec #23523-0.5) the peptide was thoroughly monomerised; purchased Anaspec 23523-0.5
Experiment: Inhibition of Abeta oligomerisation (biotinylated Aβ1-42, neutravidin plate, streptavidin-HRP)
Type: biochemical
Conditions: inhibition of Aβ1-42 aggregation, approximately 12 nM Aβ1-42, PBS pH 7.4, 2% DMSO, 30 min RT

T1 sequence (P05067 672-713 limits assumed): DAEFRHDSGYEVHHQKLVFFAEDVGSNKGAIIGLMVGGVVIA

Q: `CC(=O)NCCc1cc(-c2ccc(C(=O)O)s2)sc1-c1ccc(-c2sc(-c3ccc(C(=O)O)s3)cc2CCNC(C)=O)s1` [Example 7, 5-(5-{5-[5-(5-Carboxythiophen-2-yl)-3-(2-acetamidoethyl)thiophen-2-yl]thiophen-2-yl}-4-(2-acetamidoethyl)thiophen-2-yl)thiophene-2-carboxylic acid] was tested. Which IC50 did it give?
A: 3.98 µM

Q: With `NCCc1ccsc1-c1ccc(-c2sccc2CCN)s1` [Example 8, 2-(2-{5-[3-(2-Aminoethyl)thiophen-2-yl]thiophen-2-yl}thiophen-3-yl)ethan-1-amine] as the compound, how does the IC50 read?
A: 15.8 µM

Q: Which IC50 does the source give for `O=C(O)Cc1cc(-c2cccc(C(=O)O)c2)sc1-c1ccc(-c2sc(-c3cccc(C(=O)O)c3)cc2CC(=O)O)s1` [Example 10, 3-[4-(Carboxymethyl)-5-{5-[3-(carboxymethyl)-5-(3-carboxyphenyl)thiophen-2-yl]thiophen-2-yl}thiophen-2-yl]benzoic acid] here?
A: 7.94 µM

Q: Which IC50 does the source give for `O=C(O)Cc1cc(-c2ccccc2C(=O)O)sc1-c1ccc(-c2sc(-c3ccccc3C(=O)O)cc2CC(=O)O)s1` [Example 11, 2-[4-(Carboxymethyl)-5-{5-[3-(carboxymethyl)-5-(2-carboxyphenyl)thiophen-2-yl]thiophen-2-yl}thiophen-2-yl]benzoic acid] here?
A: 12.6 µM

Q: `O=C(O)Cc1cc(-c2cccs2)sc1-c1ccc(-c2sc(-c3ccc(C(=O)O)s3)cc2CC(=O)O)s1` [Example 12, 5-[4-(Carboxymethyl)-5-{5-[3-(carboxymethyl)-5-(thiophen-2-yl)thiophen-2-yl]thiophen-2-yl}thiophen-2-yl]thiophene-2-carboxylic acid] was tested. Which IC50 did it give?
A: 1.58 µM

Q: Which IC50 does the source give for `O=C(O)Cc1cc(-c2cccnc2)sc1-c1ccc(-c2sc(-c3ccc(C(=O)O)s3)cc2CC(=O)O)s1` [Example 13, 5-[4-(Carboxymethyl)-5-{5-[3-(carboxymethyl)-5-(pyridin-3-yl)thiophen-2-yl]thiophen-2-yl}thiophen-2-yl]thiophene-2-carboxylic acid] here?
A: 7.94 µM

Q: With `O=C(O)Cc1cc(-c2cccc(C(=O)O)c2)sc1-c1ccc(-c2sc(-c3ccc(C(=O)O)s3)cc2CC(=O)O)s1` [Example 14, 5-[4-(Carboxymethyl)-5-{5-[3-(carboxymethyl)-5-(3-carboxyphenyl)thiophen-2-yl]thiophen-2-yl}thiophen-2-yl]thiophene-2-carboxylic acid] as the compound, how does the IC50 read?
A: 2 µM

Q: Which IC50 does the source give for `O=C(O)Cc1cc(-c2cccnc2)sc1-c1ccc(-c2sc(-c3cccnc3)cc2CC(=O)O)s1` [Example 15, 2-(2-{5-[3-(Carboxymethyl)-5-(pyridin-3-yl)thiophen-2-yl]thiophen-2-yl}-5-(pyridin-3-yl)thiophen-3-yl)acetic acid] here?
A: 50.1 µM

Q: Which IC50 does the source give for `O=C(O)Cc1cc(-c2ccc(-c3ccc(C(=O)O)cc3)s2)sc1-c1ccc(-c2sc(-c3ccc(-c4ccc(C(=O)O)cc4)s3)cc2CC(=O)O)s1` [Example 19, 4-{5-[4-(Carboxymethyl)-5-{5-[3-(carboxymethyl)-5-[5-(4-carboxyphenyl)thiophen-2-yl]thiothiophen-2-yl]thiophen-2-yl}thiophen-2-yl]thiophen-2-yl}benzoic acid] here?
A: 3.98 µM

Q: Which IC50 does the source give for `O=C(O)Cc1cc(-c2ccc(-c3cccc(C(=O)O)c3)s2)sc1-c1ccc(-c2sc(-c3ccc(-c4cccc(C(=O)O)c4)s3)cc2CC(=O)O)s1` [Example 20, 3-{5-[4-(Carboxymethyl)-5-{5-[3-(carboxymethyl)-5-[5-(3-carboxyphenyl)thiophen-2-yl]thiophen-2-yl]thiophen-2-yl}thiophen-2-yl]thiophen-2-yl}benzoic acid] here?
A: 1 µM

Q: With `CS(=O)(=O)c1cccc(-c2cc(CC(=O)O)c(-c3ccc(-c4sc(-c5cccc(S(C)(=O)=O)c5)cc4CC(=O)O)s3)s2)c1` [Example 22, 2-(2-{5-[3-(Carboxymethyl)-5-(3-methanesulfonylphenyl)thiophen-2-yl]thiophen-2-yl}-5-(3-methanesulfonylphenyl)thiophen-3-yl)acetic acid] as the compound, how does the IC50 read?
A: 2.51 µM

Q: With `CNS(=O)(=O)c1ccc(-c2cc(CC(=O)O)c(-c3ccc(-c4sc(-c5ccc(S(=O)(=O)NC)cc5)cc4CC(=O)O)s3)s2)cc1` [Example 23, 2-(2-{5-[3-(Carboxymethyl)-5-[4-(methylsulfamoyl)phenyl]thiophen-2-yl]thiophen-2-yl}-5-[4-(methylsulfamoyl)phenyl]thiophen-3-yl)acetic acid] as the compound, how does the IC50 read?
A: 3.16 µM

Q: How did the IC50 turn out when `C[S+]([O-])c1cccc(-c2cc(CC(=O)O)c(-c3ccc(-c4sc(-c5cccc([S+](C)[O-])c5)cc4CC(=O)O)s3)s2)c1` (centres unmarked) [Example 24, 2-(2-{5-[3-(Carboxymethyl)-5-(3-methanesulfinylphenyl)thiophen-2-yl]thiophen-2-yl}-5-(3-methanesulfinylphenyl)thiophen-3-yl)acetic acid] was run?
A: 10 µM

Q: How did the IC50 turn out when `O=C(O)Cc1ccsc1-c1ccc(-c2sc(-c3cccc(-c4cc(CC(=O)O)c(-c5ccc(-c6sccc6CC(=O)O)s5)s4)c3)cc2CC(=O)O)s1` [Example 34, 2-(2-{5-[3-(Carboxymethyl)-5-{3-[4-(carboxymethyl)-5-{5-[3-(carboxymethyl)thiophen-2-yl]thiophen-2-yl}thiophen-2-yl]phenyl}thiophen-2-yl]thiophen-2-yl}thiophen-3-yl)acetic acid] was run?
A: 0.794 µM

Q: For `CS(=O)(=O)c1ccc(-c2sc(-c3ccc(-c4cc(CC(=O)O)c(-c5ccc(S(C)(=O)=O)cc5)s4)s3)cc2CC(=O)O)cc1` [Example 36, 2-(5-{5-[4-(Carboxymethyl)-5-(4-methanesulfonylphenyl)thiophen-2-yl]thiophen-2-yl}-2-(4-methanesulfonylphenyl)thiophen-3-yl)acetic acid], which IC50 is on record?
A: 5.01 µM

Q: For `CS(=O)(=O)c1ccc(-c2sc(-c3ccc(-c4cc(CC(=O)O)c(-c5ccc(S(C)(=O)=O)cc5)s4)cc3)cc2CC(=O)O)cc1` [Example 37, 2-(5-{4-[4-(Carboxymethyl)-5-(4-methanesulfonylphenyl)thiophen-2-yl]phenyl}-2-(4-methanesulfonylphenyl)thiophen-3-yl)acetic acid], which IC50 is on record?
A: 5.01 µM

Q: How did the IC50 turn out when `O=C(O)Cc1ccsc1-c1ccc(-c2sc(-c3ccc(-c4cc(CC(=O)O)c(-c5ccc(-c6sccc6CC(=O)O)cc5)s4)cc3)cc2CC(=O)O)cc1` [Example 38, 2-(2-{4-[3-(Carboxymethyl)-5-{4-[4-(carboxymethyl)-5-{4-[3-(carboxymethyl)thiophen-2-yl]phenyl}thiophen-2-yl]phenyl}thiophen-2-yl]phenyl}thiophen-3-yl)acetic acid] was run?
A: 1.58 µM

Q: With `O=C(O)Cc1ccsc1-c1ccc(-c2sc(-c3ccc(-c4cc(CC(=O)O)c(-c5ccc(-c6sccc6CC(=O)O)cc5)s4)s3)cc2CC(=O)O)cc1` [Example 40, 2-(5-{5-[4-(Carboxymethyl)-5-{4-[3-(carboxymethyl)thiophen-2-yl]phenyl}thiophen-2-yl]thiophen-2-yl}-2-{4-[3-(carboxymethyl)thiophen-2-yl]phenyl}thiophen-3-yl)acetic acid] as the compound, how does the IC50 read?
A: 1.26 µM

Q: How did the IC50 turn out when `CS(=O)(=O)c1ccc(-c2cc(CCN)c(-c3ccc(-c4sc(-c5ccc(S(C)(=O)=O)cc5)cc4CCN)s3)s2)cc1` [Example 41, 2-(2-{5-[3-(2-Aminoethyl)-5-(4-methanesulfonylphenyl)thiophen-2-yl]thiophen-2-yl}-5-(4-methanesulfonylphenyl)thiophen-3-yl)ethan-1-amine] was run?
A: 0.794 µM

Q: For `NCCc1ccsc1-c1ccc(-c2sc(-c3ccc(-c4cc(CCN)c(-c5ccc(-c6sccc6CCN)s5)s4)s3)cc2CCN)s1` [Example 42, 2-(2-{5-[3-(2-Aminoethyl)-5-{5-[4-(2-aminoethyl)-5-{5-[3-(2-aminoethyl)thiophen-2-yl]thiophen-2-yl}thiophen-2-yl]thiophen-2-yl}thiophen-2-yl]thiophen-2-yl}thiophen-3-yl)ethan-1-amine], which IC50 is on record?
A: 0.251 µM

Q: With `O=C(O)Cc1cc(-c2ccc(-c3ccccc3C(=O)O)s2)sc1-c1ccc(-c2sc(-c3ccc(-c4ccccc4C(=O)O)s3)cc2CC(=O)O)s1` [Example 43, 2-{5-[4-(Carboxymethyl)-5-{5-[3-(carboxymethyl)-5-[5-(2-carboxyphenyl)thiophen-2-yl]thiophen-2-yl]thiophen-2-yl}thiophen-2-yl]thiophen-2-yl}benzoic acid] as the compound, how does the IC50 read?
A: 3.98 µM

Q: How did the IC50 turn out when `CS(=O)(=O)c1ccc(-c2cc(CCC(=O)O)c(-c3ccc(-c4sc(-c5ccc(S(C)(=O)=O)cc5)cc4CCC(=O)O)s3)s2)cc1` [Example 51, 3-(2-{5-[3-(2-Carboxyethyl)-5-(4-methanesulfonylphenyl)thiophen-2-yl]thiophen-2-yl}-5-(4-methanesulfonylphenyl)thiophen-3-yl)propanoic acid] was run?
A: 1.58 µM and 7.94 µM

Q: `O=C(O)CCc1cc(-c2ccc(C(=O)O)s2)sc1-c1ccc(-c2sc(-c3ccc(C(=O)O)s3)cc2CCC(=O)O)s1` [Example 53, 5-[4-(2-Carboxethyl)-5-{5-[3-(2-carboxyethyl)-5-(5-carboxythiophen-2-yl)thiophen-2-yl]thiophen-2-yl}thiophen-2-yl]thiophene-2-carboxylic acid] was tested. Which IC50 did it give?
A: 3.98 µM

Q: `O=C(O)Cc1cc(-c2ccc(-c3cc(CC(=O)O)c(-c4ccc(-c5ccc(C(=O)O)cc5)s4)s3)s2)sc1-c1ccc(-c2ccc(C(=O)O)cc2)s1` [Example 54, 4-{5-[3-(Carboxymethyl)-5-{5-[4-(carboxymethyl)-5-[5-(4-carboxyphenyl)thiophen-2-yl]thiophen-2-yl]thiophen-2-yl}thiophen-2-yl]thiophen-2-yl}benzoic acid] was tested. Which IC50 did it give?
A: 1.26 µM

Q: `O=C(O)Cc1cccc(-c2ccc(-c3cc(CC(=O)O)c(-c4ccc(-c5sc(-c6ccc(-c7cccc(CC(=O)O)c7)s6)cc5CC(=O)O)s4)s3)s2)c1` [Example 57, 2-(2-{5-[3-(Carboxymethyl)-5-{5-[3-(carboxymethyl)phenyl]thiophen-2-yl}thiophen-2-yl]thiophen-2-yl}-5-{5-[3-(carboxymethyl)phenyl]thiophen-2-yl}thiophen-3-yl)acetic acid] was tested. Which IC50 did it give?
A: 0.398 µM

Q: With `O=C(O)Cc1cc(Cl)sc1-c1ccc(-c2sc(-c3ccc(-c4cc(CC(=O)O)c(-c5ccc(-c6sc(Cl)cc6CC(=O)O)s5)s4)s3)cc2CC(=O)O)s1` [Example 58, 2-(2-{5-[3-(Carboxymethyl)-5-{5-[4-(carboxymethyl)-5-{5-[3-(carboxymethyl)-5-chlorothiophen-2-yl]thiophen-2-yl}thiophen-2-yl]thiophen-2-yl}thiophen-2-yl]thiophen-2-yl}-5-chlorothiophen-3-yl)acetic acid] as the compound, how does the IC50 read?
A: 0.398 µM
